Assay results reported in paper PMC13250552 (Proceedings of the National Academy of Sciences of the …, 2026).

Tests used:
SiHa cells [1] = assay type: cell-based; details: 24 hours
C51S cells = assay type: cell-based; details: 48 h, KTI-240 3 μM, etoposide 2 μM
SiHa cells [2] = test: Senescence SA-β-gal assay, SiHa; assay type: cell-based, human; details: 48 h, KTI-240 3 μM, etoposide 2 μM
SiHa-C51S cells = assay type: cell-based; details: 24 hours
UM-SCC-104 = test: Immunoblot of p53 and p21 in UM-SCC-104 cells; assay type: cell-based, human; details: 24 hours
RPE-1 cells = assay type: cell-based; details: p53 wild-type, HPV-negative

## COc1cc([C@@H]2c3cc4c(cc3[C@@H](O[C@@H]3O[C@@H]5CO[C@@H](C)O[C@H]5[C@H](O)[C@H]3O)[C@H]3COC(=O)[C@H]23)OCO4)cc(OC)c1O [etoposide]
SiHa cells [1]
  p53 protein levels (Western blot): induced p53 in both cell lines
C51S cells
  SA-β-gal senescence marker: induced
SiHa cells [2]
  SA-β-gal senescence marker: induced
SiHa-C51S cells
  p53 protein levels (Western blot): etoposide did
UM-SCC-104
  p53 protein (immunoblot): did not induce p53
RPE-1 cells
  p53 protein levels (Western blot): induced p53 in both cell lines
